The values that follow come from patent US20040248971A1, “Use of vitamin e succinate and antiandrogen combination” (priority 2001, published 2004).

In one experiment the test system is PSA. Nature of the experiment: PSA expression in LNCaP cells (Western and Northern blotting). In kind it is cell-based, human. The procedure:
Cells without treatment were harvested on day 2 and used as a control. Western blotting was used to detect the expression of PSA protein. Actin served as an internal control. […] Cells were harvested on days 1, 2, and 3 for Northern blotting analysis. β-Actin served as an internal control. […] The transfections were performed at least three times and presented as an average±SD. […] LNCaP cells without any treatment harvested on the first day (day 0) is used as a control. Western blotting was applied to detect the expression of PSA protein level. […] Cells were harvested on day 1, 2, and 3 for Northern blotting analyses. (G). […] The transfections were performed three times and presented as an average: bar-denotes standard deviation.
Protein harvested from cells without treatment on the first day (day 0) was used as a control. Fifty micrograms of whole-cell lysate was subjected to Western blotting assay.
LNCaP cells were cultured in RPMI medium with 8% FBS, and treated with […] of the indicated reagent. Proteins harvested from cells without treatment on day 2 were used as a control. 60 micrograms of whole cell lysate was subjected to Western blotting assay.
Total protein lysate from LNCaP cells was prepared as previously described (Yeh, PNAS). After separation of 50 μg protein by SDS-PAGE gel, proteins were transferred by electrophoresis to Immobilon-P membrane (Millipore Corp., Bedford, Mass.) and incubated in PBS with 0.1% Tween-20 and 10% FCS for 2 h. Primary antibodies specific for human AR, PSA, and β-actin were diluted in PBS with 0.1% Tween-20 (PBST) as described in manual and incubated at room temperature for 2 h. Membranes were washed in PBST (three times, 10 min each time) and incubated with AP-conjugated secondary antibody which was diluted as described in manual in PBST and incubated for 2 h in room temperature, washed in PBST (three times, 10 min each time). The proteins were detected by AP western blotting reagents.
Cells were harvest after 1, 2, and 3 days treatment. Total RNA was extracted using Trizol, according to manufacturer's directions (GIBCO). Total RNA (20 μg) was electrophoresed though formaldehyde-agarose gels and transferred to Hybond-N+ membrane (Amersham Pharmacia Biotech) according the company's protocol (17).
For Northern blots, the fragments of the human PSA, AR, and β-actin cDNA were labeled with [^32P]-dCTP using the random primed DNA labeling kit from Amersham Pharmacia Biotech. Membranes were prehybridized, hybridized, and washed using Rapid-hyb system from Amersham Pharmacia Biotech, according to the manufacturer's user manual. The mRNA was detected using phosphorimager screen system (Molecular Dynamics).

The next experiment relates to SP1. Nature of the experiment: GAL4-SP1 transactivation (pG5-Luc) in COS-1 cells. Conditions: 10 μM VES. In kind it is cell-based.
In a further experiment the test system is LNCaP cells. Nature of the experiment: MTT assay / cell counting, LNCaP cell growth. It is filed as cell-based, human. The procedure:
Cells were harvested at the time indicated. […] Cells were harvested at the time indicated. […] Cell growth was determined by the MTT assay. The control group was cultured in 0.1% (vol/vol) ethanol and was set at 100%.
All the cell growth was determined by cell counting and MTT assay. Control group contained 0.1% (v/v) ethanol and was set at 100%.
LNCaP cells were cultured in RPMI medium with 8% FBS, and treated with 10^−5M of the indicated reagent Cells were harvested at the time indicated in the figure. All the cell growth was determined by cell counting and MTT assay. Control group contained 0.1% (v/v) ethanol and was set at 100%.
The human prostate cancer cell line LNCaP was obtained from the American Type Culture collection (Rockville, Md.). Fibroblast cell was primarily cultured from normal prostate tissue. LNCaP cells were propagated in 12-well, 60 mm or 100 mm culture dishes at the desired density in RPMI 1640 medium (Gibco, Rockville, Md.) supplemented with 8% fetal bovine serum (FBS) (Gibco, Rockville, Md.) at 37° C. and 5% CO2 until reaching 60%-80% confluence or were grown in phenol red-free RPMI medium 1640 with 8% fetal bovine serum (FBS). The fibroblast cells were maintained in DMEM (Gibco, Rockville, Md.) with 10% FBS. […] During the treatment, the medium was changed every 4 days and fresh compounds were added every 2 days.
The MTT assay is a quantitative colorimetric assay for mammalian cell survival and proliferation (13, 16). The 5×10^4 LNCaP cells were seeded in 12-well plates. After 36-48 h, the medium was changed to phenol red free RPMI1640 with 8 % FBS or CS-FBS for another 2, 4, and 6 days, with different compound treatment with or without ligand. At the end of each time period treatment, 200 μl of MTT (5 mg/ml; Sigma) was added into the each well with 1 ml of medium for 3 h at 37° C. After incubation, 2 ml of 0.04 M HCl in isopropyl alcohol was added into each well. After 30-min shaking at room temperature and several pippettings, the absorbency was read at a test wavelength of 595 nm. The 2×10^5 fibroblast cells were seeded in each well of 6-well dishes. […] For cell counting, cells were trypsinized, neutralized by medium, and counted on hemocytometers. Fibroblast cells were seeded at 2×10^5 per well in 6-well plates, and cell growth assays were conducted by using the same MTT assay used for LNCaP cells.
A general note: Formazan colour is commonly taken as a measure of viable cells.

“Also recorded” adds a separate entry of the source.

Regarding `Cc1c(C)c2c(c(C)c1OC(=O)CCC(=O)O)CCC(C)(CCCC(C)CCCC(C)CCCC(C)C)O2` (stereo not drawn) [VES, RRR-α-tocopheryl succinate], the “intracellular and secreted levels of PSA” value with PSA (LNCaP cells in normal serum or androgen-stimulated conditions) is “decreases”. In the experiment on PSA (LNCaP, 8% FBS, Western blotting (FIG. 9)), the PSA expression entry is listed as “most effective isoform”. The “PSA expression at mRNA and protein levels” value in the experiment on PSA (LNCaP, 5 nM DHT, 10 μM VES, Western and Northern blotting) is recorded as “effectively repressed”. Further, the GAL4-SP1 transcription activity result in the experiment with SP1 is “did not significantly inhibit”. Further, the “DHT-mediated LNCaP cell growth” value with LNCaP cells (8% CS-FBS with 5 nM DHT, HF 5 μM, VES 10 μM, MTT) is “effectively represses”. In addition, the LNCaP cell growth result in the experiment on LNCaP cells (8% FBS without DHT, HF 5 μM, VES 10 μM, MTT) is “inhibits; also recorded: differentially inhibit”; with LNCaP cells (RPMI 8% FBS, 10^−5M reagent, cell counting and MTT (FIGS. 8 and 10)) it was “can inhibit; also recorded: most effective compound; also recorded: most effective isoform”.
